Data published in patent US4120947A, “Xanthine compounds and method of treating bronchospastic and allergic diseases” (priority 1976, dated 1978).
“Also recorded” adds a separate entry of the source. Where two headings read alike, the source gives them in different places.

What was measured:
[1] = system: albino rat; experiment: in vivo
Method: (§1) The LD50 was determined in three species, the mouse (male, 18-25 g), the albino rat (female, 150-200 g) and the albino guinea pig (male 180-280 g) by oral administration and in the albino rat by intraperitoneal administration. The animals are fasted overnight prior to testing. Six groups of ten animals are used; five groups are dosed with the test substance, the sixth group serves as a control and receives the drug vehicle at the highest test concentration. The compounds were administered in a 0.5% gum tragacanth solution in distilled water using a constant logarithmic increment in dose. Dose volume ranged from […].
(§2) The animals were housed five per cage (rat and guinea pig) or ten per cage (mouse) with free access to food and water. The number of dead animals was recorded daily for five consecutive days. The total mortality per group of ten for each dose level was recorded and LD50 with Confidence Limits calculated according to the method described by Weil, C.

[2] = in vivo
Method: as §1, §2

[3] = system: guinea pig tracheal chain preparation; experiment: SP: spasmolytic activity in vitro, guinea pig tracheal chain preparation; conditions: Cavia porcellus, read-out: SP in vitro C, molar concentration required to produce maximum relaxation
Excerpt: SP Spasmolytic activity evaluated in vitro using guinea pig tracheal chain preparation, and expressed as the molar (M) concentration required to produce maximum relaxation. The method used in that of Castillo and de Beer, J. Pharmac. Expt. Therap. 90, 104, 1947.

[4] = system: mouse; experiment: LD50 mouse; format: in vivo
Method: as §1, §2

[5] = LD50 mouse; format: in vivo; conditions: in vivo, po
Method: as §1, §2

[6] = system: antigen-induced bronchconstriction in rats sensitized with N. brasliensis; experiment: AA: antiallergy (anti-anaphylactic) activity against antigen-induced bronchoconstriction in sensitized rats
Excerpt: The animals are subdivided into control and test groups. Test animals receive a drug either orally, intraperitoneally or intravenously and are challenged with intravenous antigen at fixed time intervals after dosing. Antigen-induced increases in tracheal pressure are monitored and reflect the extent of bronchoconstriction.

[7] = system: passive cutaneous anaphylaxis in the rat; experiment: PCA: passive cutaneous anaphylaxis in the rat; format: in vivo
Method: PCA Antianaphylactic activity against passive cutaneous anaphylaxis in the rat, expressed as % protection against antigen-induced wheal formation.
The method used is that of Ogilvie, B. M., Immunology 12, 113-131 (1967). Reaginic […] antibodies develope in the rat following subcutaneous injection of Nippostrongylus brasiliensis larvae. Antisera, collected 28 days later are injected subcutaneously into new rats.

[8] = system: histamine-induced bronchoconstriction in the guinea pig; experiment: BD: bronchodilator activity against histamine-induced bronchoconstriction in the guinea pig; conditions: for inhibition in vivo at 10 mg/kg / inhibition in vivo at 20 mg/kg: Cavia porcellus, po, read-out: BD (guinea pig), % protection
Excerpt: BD Bronchodilator activity evaluated against histamine-induced bronchoconstriction in the guinea pig, and expressed as % protection at the stated time interval (in minutes and hours) post-drug against histamine agonist. Doses are expressed in milligrams per kilogram of body weight (mpk) per os (po) or intraperitoneally (ip).
A modification of the method of Siegmund. O.H., et al., J. Pharmacol. and Exp. Therap. 90:254-9, 1947, is used. Healthy guinea pigs weighing from 250 to 300 grams are placed four at a time and separated by wiring screening in an 11 liter plastic chamber, at the time of peak activity following drug administration. The challenge consists of histamine diphosphate (1% solution) aerosolized in a de Vilbiss -40 nebulizer at 200 mm Hg. Times for prostration are recorded.
Per cent protection is calculated as follows: [formula] wherein the times are measured in seconds.
In interpreting the BD data it should be noted that a dose giving less than 40-50% protection is not considered useful. Differences in percent protection of less than 10% are probably not significant.

[9] = system: histamine-induced bronchoconstriction in the dog; experiment: CP: cardiopulmonary activity against histamine-induced bronchoconstriction in the dog; format: in vivo; conditions: histamine challenge
Excerpt: Pretreatment with bronchodilator drugs aims to block the bronchospastic response to histamine. Each dog serves as its own control.

[10] = Rattus norvegicus, ip, 1 h, read-out: AA (rat), % protection
[11] = Rattus norvegicus, po, 1 h, read-out: AA (rat), % protection
[12] = guinea pig, comparison with corresponding compound

SMILES: CCC(C)Cn1c(=O)n(C)c(=O)c2c1nc(C)n2C(=O)OC (stereo not shown) [Compound 4387, 1,8-dimethyl-3-(2-methyl-1-butyl)-7-carbomethoxyxanthine]
- lethality relative to 4390 [1]: about one-half
- LD50 ([2]; guinea pig, po): 27.4 mg/kg
- LD50 ([2]; in vivo, rat, ip): 18.3 mg/kg
- LD50 ([2]; in vivo, rat, po): 60 mg/kg
- EC (maximum relaxation) [3]: 1000 µM
- lethality relative to 4390 [4]: about one-half
- LD50 [5]: 54.9 mg/kg
- inhibition in vivo at 5 mg/kg [6, 10]: 55%
- inhibition in vivo at 75 mg/kg [6, 10]: 70%
- inhibition in vivo at 2.5 mg/kg [6, 11]: 72%
- inhibition in vivo at 5 mg/kg [6, 11]: 68%
- inhibition in vivo at 10 mg/kg [6, 11]: 57%
- antiallergy effectiveness, in words ([6]; rat, comparison with 4390): about as effective as the corresponding 3-isobutyl compound (4390)
- Wheal Diameter, % Δ ([7]; 10 mg/kg po): 41%
- Wheal Diameter, Response (Mean ± S.E.M.) ([7]; 10 mg/kg po): 1.41 ± 0.17 cm
- Wheal Intensity, % Δ ([7]; 10 mg/kg po): 33%
- Wheal Intensity, Response (Mean ± S.E.M.) ([7]; 10 mg/kg po): 1.65 ± 0.20
- Wheal Diameter, % Δ ([7]; 20 mg/kg po): 57%
- Wheal Diameter, Response (Mean ± S.E.M.) ([7]; 20 mg/kg po): 0.81 ± 0.13 cm
- Wheal Intensity, % Δ ([7]; 20 mg/kg po): 38%
- Wheal Intensity, Response (Mean ± S.E.M.) ([7]; 20 mg/kg po): 1.18 ± 0.21
- antiallergy activity, in words ([7]; rat passive cutaneous anaphylaxis): effective antiallergy agents
- inhibition in vivo at 10 mg/kg ([8]; 0.5 h): 44%
- inhibition in vivo at 10 mg/kg ([8]; 1 h): 87%
- inhibition in vivo at 20 mg/kg ([8]; 1 h): 94%
- inhibition in vivo at 10 mg/kg ([8]; 6 h): 59%
- inhibition in vivo at 20 mg/kg ([8]; 6 h): 92%
- inhibition in vivo at 10 mg/kg ([8]; 10 h): 37%
- bronchodilator effectiveness, in words [8, 12]: shows greater activity; also recorded: about as effective as the corresponding 3-isobutyl compound (4390)
- onset and duration of action, in words [8, 12]: effective at lower doses and for longer duration
- cardiopulmonary / bronchodilator activity in the dog, in words [9]: significantly reduce the decrease in pulmonary compliance and increase in pulmonary resistance due to histamine administration; also recorded: about as effective as the corresponding 3-isobutyl compound (4390)
